These results are taken from US8574563B2 (Bristol-Myers Squibb Company, priority 2006, dated 2013).

One assay deals with HCV 1b-377-neo replicon cells. The assay can be described thus: HCV replicon assay, HCV 1b-377-neo replicon cells (1b FRET). The format is cell-based, Hepatitis C virus genotype 1b. The following applies: HCV 1b-377-neo replicon cells; HCV 1b genotype; read-out: EC50 range against HCV 1b (Table 2, Range). The procedure, abridged:
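Compounds tested in HCV genotype 1b-377-neo replicon cells with a FRET read-out. Cells resistant to a reference NS5A inhibitor through a Y2065H NS5A mutation were run alongside wild-type cells.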
As to `COC(=O)NC(C(=O)N1CCCC1c1ncc(-c2ccc(-c3ccc(-c4cnc(C5CCCN5C(=O)C(c5csc6ccccc56)N(C)C)[nH]4)cc3)cc2)[nH]1)c1ccccc1` [Example 84-50, methyl ((1R)-2-((2S)-2-(5-(4′-(2-((2S)-1-(1-benzothiophen-3-yl(dimethylamino)acetyl)-2-pyrrolidinyl)-1H-imidazol-5-yl)-4-biphenylyl)-1H-imidazol-2-yl)-1-pyrrolidinyl)-2-oxo-1-phenylethyl)carbamate], the EC50 lay in the range of 1 to 999 pM.

Still in this assay, the particulars now being: Hepatitis C virus, HCV 1b-377-neo replicon cells; HCV 1b genotype; read-out: EC50 range against HCV 1b (Table 2, Range).
With `COCC(=O)N1CCC[C@H]1c1ncc(-c2ccc(-c3ccc(-c4cnc([C@@H]5CCCN5C(=O)[C@H](NC(=O)OC)c5ccccc5)[nH]4)cc3)cc2)[nH]1` [Example 55, methyl ((1R)-2-((2S)-2-(5-(4′-(2-((2S)-1-(methoxyacetyl)-2-pyrrolidinyl)-1H-imidazol-5-yl)-4-biphenylyl)-1H-imidazol-2-yl)-1-pyrrolidinyl)-2-oxo-1-phenylethyl)carbamate], the EC50 is 1 to 999 pM.
As for `CCNC(=O)N[C@@H](C(=O)N1CCC[C@H]1c1ncc(-c2ccc(-c3ccc(-c4cnc([C@@H]5CCCN5C(=O)[C@H](NC(=O)NCC)c5ccccc5)[nH]4)cc3)cc2)[nH]1)c1ccccc1` [Example 24-4c, N′,N′′′-(4,4′-biphenyldiylbis(1H-imidazole-5,2-diyl(2S)-2,1-pyrrolidinediyl((1R)-2-oxo-1-phenyl-2,1-ethanediyl)))bis(1-ethylurea)], the concentration for a half-maximal effect (EC50) fell in the range of 1 to 999 pM.
Same read-out and setting: under `COC(=O)N[C@@H](C(=O)N1CCC[C@H]1c1ncc(-c2ccc(-c3ccc(-c4cnc([C@@H]5CCCN5C(=O)Cc5cccc(OC)c5)[nH]4)cc3)cc2)[nH]1)c1ccccc1` [Example 84-64, methyl ((1R)-2-((2S)-2-(5-(4′-(2-((2S)-1-((3-methoxyphenyl)acetyl)-2-pyrrolidinyl)-1H-imidazol-5-yl)-4-biphenylyl)-1H-imidazol-2-yl)-1-pyrrolidinyl)-2-oxo-1-phenylethyl)carbamate] stands 1 to 999 pM.
For the compound `COC(=O)N[C@H](CC(=O)N1CCC[C@H]1c1ncc(-c2ccc(-c3ccc(-c4cnc([C@@H]5CCCN5C(=O)C[C@@H](NC(=O)OC)c5ccccc5)[nH]4)cc3)cc2)[nH]1)c1ccccc1` [cj-128, methyl ((1R)-3-((2S)-2-(5-(4′-(2-(1-((3R)-3-((methoxycarbonyl)amino)-3-phenylpropanoyl)-2-pyrrolidinyl)-1H-imidazol-5-yl)-4-biphenylyl)-1H-imidazol-2-yl)-1-pyrrolidinyl)-3-oxo-1-phenylpropyl)carbamate], the EC50 was 1 to 999 pM.
Same read-out and setting: under `CCN(CC)[C@@H](C(=O)N1CCC[C@H]1c1nc(-c2ccc(-c3ccc(-c4[nH]c([C@@H]5CCCN5C(=O)[C@@H](c5ccccc5)N(CC)CC)nc4C)cc3)cc2)c(C)[nH]1)c1ccccc1` [Example E5h, (1R,1′R)-2,2′-(4,4′-biphenyldiylbis((4-methyl-1H-imidazole-5,2-diyl)(2S)-2,1-pyrrolidinediyl))bis(N,N-diethyl-2-oxo-1-phenylethanamine)] stands 1 to 999 pM; under `COC(=O)N[C@@H](C)C(=O)N1CCC[C@H]1c1ncc(-c2ccc(-c3ccc(-c4cnc([C@@H]5CCCN5C(=O)[C@H](C)NC(=O)OC)[nH]4)c(F)c3)cc2)[nH]1` [Example D45, methyl ((1S)-2-((2S)-2-(5-(3′-fluoro-4′-(2-((2S)-1-(N-(methoxycarbonyl)-L-alanyl)-2-pyrrolidinyl)-1H-imidazol-5-yl)-4-biphenylyl)-1H-imidazol-2-yl)-1-pyrrolidinyl)-1-methyl-2-oxoethyl)carbamate], 1 to 999 pM; under `CCS(=O)(=O)N[C@H](C(=O)N1CCC[C@H]1c1nc(-c2ccc(-c3ccc(-c4c[nH]c([C@@H]5CCCN5C(=O)[C@@H](NS(=O)(=O)CC)C(C)C)n4)cc3)cc2)c[nH]1)C(C)C` [Example F67, N-((1S)-1-(((2S)-2-(4-(4′-(2-((2S)-1-((2S)-2-((ethylsulfonyl)amino)-3-methylbutanoyl)-2-pyrrolidinyl)-1H-imidazol-4-yl)-4-biphenylyl)-1H-imidazol-2-yl)-1-pyrrolidinyl)carbonyl)-2-methylpropyl)ethanesulfonamide], 1000 to 99000 pM.
On to `COC(=O)N[C@@H](C(=O)N1CCC[C@H]1c1ncc(-c2ccc(-c3ccc(-c4cnc([C@@H]5CCCN5C(=O)[C@H](NC(=O)OC)c5ccccc5)[nH]4)cc3CN(C)C)cc2)[nH]1)c1ccccc1` [Example M121], for which the EC50 was in the range of 100000 to 999000 pM.
With `COC(=O)N[C@H](C(=O)N1CCC[C@H]1c1ncc(-c2ccc(-c3ccc(-c4c[nH]c([C@@H]5CCCN5C(=O)[C@@H](NC(=O)OC)C5CC5)n4)c(F)c3)cc2F)[nH]1)C(C)C` [Example D55, methyl ((1S)-1-cyclopropyl-2-((2S)-2-(5-(3,3,-difluoro-4′-(2-((2S)-1-(N-(methoxycarbonyl)-L-valyl)-2-pyrrolidinyl)-1H-imidazol-5-yl)-4-biphenylyl)-1H-imidazol-2-yl)-1-pyrrolidinyl)-2-oxoethyl)carbamate], the 50% effective concentration (EC50) lay in the range of 1 to 999 pM.
Still for that read-out and setting: next, `COC(=O)N[C@@H](C)C(=O)N1CCC[C@H]1c1ncc(-c2ccc(-c3ccc(-c4cnc([C@@H]5CCCN5C(=O)[C@H](NC(=O)OC)c5ccccc5)[nH]4)c(F)c3)cc2F)[nH]1` [Example D62, methyl ((1R)-2-((2S)-2-(5-(3,3′-difluoro-4′-(2-((2S)-1-(N-(methoxycarbonyl)-L-alanyl)-2-pyrrolidinyl)-1H-imidazol-5-yl)-4-biphenylyl)-1H-imidazol-2-yl)-1-pyrrolidinyl)-2-oxo-1-phenylethyl)carbamate]: 1 to 999 pM; `COC(=O)N[C@@H](C(=O)N1CCC[C@H]1c1ncc(-c2ccc(-c3ccc(-c4cnc([C@@H]5CCCN5C(=O)C5(C)CCN(C(=O)OC(C)(C)C)CC5)[nH]4)cc3)cc2)[nH]1)c1ccccc1` [Example 84-12, tert-butyl 4-(((2S)-2-(5-(4′-(2-((2S)-1-((2R)-2-((methoxycarbonyl)amino)-2-phenylacetyl)-2-pyrrolidinyl)-1H-imidazol-5-yl)-4-biphenylyl)-1H-imidazol-2-yl)-1-pyrrolidinyl)carbonyl)-4-methyl-1-piperidinecarboxylate]: 1 to 999 pM; `COC(=O)N[C@H](C(=O)N1CCC[C@H]1c1nc(-c2cnc(-c3ccc(-c4cnc([C@@H]5CCCN5C(=O)[C@@H](NC(=O)OC)C(C)C)[nH]4)cc3)nc2)c[nH]1)C(C)C` [Example D74, methyl ((1S)-1-(((2S)-2-(5-(2-(4-(2-((2S)-1-((2S)-2-((methoxycarbonyl)amino)-3-methylbutanoyl)-2-pyrrolidinyl)-1H-imidazol-5-yl)phenyl)-5-pyrimidinyl)-1H-imidazol-2-yl)-1-pyrrolidinyl)carbonyl)-2-methylpropyl)carbamate]: 1 to 999 pM.
On the same count and under the same terms, next, `COC(=O)N[C@@H](C(=O)N1CCC[C@H]1c1ncc(-c2ccc(-c3ccc(-c4cnc([C@@H]5CCCN5C(=O)C(c5cccc6ccccc56)N(C)C)[nH]4)cc3)cc2)[nH]1)c1ccccc1` (stereo partly drawn) [Example 84-51, methyl ((1R)-2-((2S)-2-(5-(4′-(2-((2S)-1-((dimethylamino)(1-naphthyl)acetyl)-2-pyrrolidinyl)-1H-imidazol-5-yl)-4-biphenylyl)-1H-imidazol-2-yl)-1-pyrrolidinyl)-2-oxo-1-phenylethyl)carbamate]: 1 to 999 pM; `COC(=O)N[C@H](C(=O)N1CCC[C@H]1c1ncc(-c2ccc(-c3ccc(-c4cnc([C@@H]5CCCN5C(=O)[C@@H](NC(=O)OC)C(C)OC)[nH]4)c(F)c3)cc2F)[nH]1)C(C)C` (stereo in doubt) [Example D56, methyl ((1S,2R)-1-(((2S)-2-(5-(3,3′-difluoro-4′-(2-((2S)-1-(N-(methoxycarbonyl)-L-valyl)-2-pyrrolidinyl)-1H-imidazol-5-yl)-4-biphenylyl)-1H-imidazol-2-yl)-1-pyrrolidinyl)carbonyl)-2-methoxypropyl) carbamate]: 1 to 999 pM.
Still for that read-out and setting: next, `COC(=O)N[C@@H](C(=O)N1CCC[C@H]1c1ncc(-c2ccc(-c3ccc(-c4cnc([C@@H]5CCCN5C(=O)Cc5ccc(OC)cc5)[nH]4)cc3)cc2)[nH]1)c1ccccc1` [Example 84-63, methyl ((1R)-2-((2S)-2-(5-(4′-(2-((2S)-1-((4-methoxyphenyl)acetyl)-2-pyrrolidinyl)-1H-imidazol-5-yl)-4-biphenylyl)-1H-imidazol-2-yl)-1-pyrrolidinyl)-2-oxo-1-phenylethyl)carbamate]: 1 to 999 pM; `O=C([C@H]1CCCO1)N1CCC[C@H]1c1ncc(-c2ccc(-c3ccc(-c4cnc([C@@H]5CCCN5C(=O)[C@H]5CCCO5)[nH]4)cc3)cc2)[nH]1` [Example 13, 5,5′-(4,4′-biphenyldiyl)bis(2-((2S)-1-((2R)-tetrahydro-2-furanylcarbonyl)-2-pyrrolidinyl)-1H-imidazole)]: 1000 to 99000 pM; `COC(=O)N[C@@H](C)C(=O)N1CCC[C@H]1c1ncc(-c2ccc(-c3ccc(-c4cnc([C@@H]5CCCN5C(=O)[C@@H](NC(=O)OC)C5CC5)[nH]4)cc3)cc2)[nH]1` [Example M93, methyl ((1S)-1-cyclopropyl-2-((2S)-2-(5-(4′-(2-((2S)-1-(N-(methoxycarbonyl)-L-alanyl)-2-pyrrolidinyl)-1H-imidazol-5-yl)-4-biphenylyl)-1H-imidazol-2-yl)-1-pyrrolidinyl)-2-oxoethyl)carbamate]: 1000 to 99000 pM.
With `COC(=O)N[C@H](C(=O)N1CCC[C@H]1c1ncc(-c2ccc(-c3ccc(-c4[nH]c([C@@H]5CCCN5C(=O)[C@@H](NC(=O)OC)C5CC5)nc4C(F)(F)F)cc3)cc2)[nH]1)C1CC1` [Example J41, methyl ((1S)-1-cyclopropyl-2-((2S)-2-(5-(4′-(2-((2S)-1-((2S)-2-cyclopropyl-2-((methoxycarbonyl)amino)acetyl)-2-pyrrolidinyl)-1H-imidazol-5-yl)-4-biphenylyl)-4-(trifluoromethyl)-1H-imidazol-2-yl)-1-pyrrolidinyl)-2-oxoethyl)carbamate], the concentration giving a half-maximal response (EC50) lay in the range of 1 to 999 pM.

For orientation: EC50 means the concentration needed to bring the measured effect to its halfway point.
